Reference: ChEMBL document CHEMBL1201862, “PubChem BioAssay data set” (2004)
Activity calls are given as the source filed them.

Tests used:
Salmon testes DNA = experiment: DNA intercalators displacing acridine orange, dose response, artefact control for KSHV LANA DNA-binding inhibitor project, biochemical, fluorescence polarization, cherry-picked samples, set 2 (AID 504727); design: species or system Salmonidae
ORF 73 = ORF 73 (Human herpesvirus 8, UniProt O40947); experiment: inhibitors of C-LANA binding to LBS DNA, dose response, biochemical, fluorescence polarization, cherry-picked samples (AID 504725); design: species or system Human gammaherpesvirus 8;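 note: fluorescence polarization of a labeled DNA duplex reporting LANA DNA binding; potency is for inhibitors that block LANA binding to the DNA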
Chain of ORF 73 (O40947 whole entry): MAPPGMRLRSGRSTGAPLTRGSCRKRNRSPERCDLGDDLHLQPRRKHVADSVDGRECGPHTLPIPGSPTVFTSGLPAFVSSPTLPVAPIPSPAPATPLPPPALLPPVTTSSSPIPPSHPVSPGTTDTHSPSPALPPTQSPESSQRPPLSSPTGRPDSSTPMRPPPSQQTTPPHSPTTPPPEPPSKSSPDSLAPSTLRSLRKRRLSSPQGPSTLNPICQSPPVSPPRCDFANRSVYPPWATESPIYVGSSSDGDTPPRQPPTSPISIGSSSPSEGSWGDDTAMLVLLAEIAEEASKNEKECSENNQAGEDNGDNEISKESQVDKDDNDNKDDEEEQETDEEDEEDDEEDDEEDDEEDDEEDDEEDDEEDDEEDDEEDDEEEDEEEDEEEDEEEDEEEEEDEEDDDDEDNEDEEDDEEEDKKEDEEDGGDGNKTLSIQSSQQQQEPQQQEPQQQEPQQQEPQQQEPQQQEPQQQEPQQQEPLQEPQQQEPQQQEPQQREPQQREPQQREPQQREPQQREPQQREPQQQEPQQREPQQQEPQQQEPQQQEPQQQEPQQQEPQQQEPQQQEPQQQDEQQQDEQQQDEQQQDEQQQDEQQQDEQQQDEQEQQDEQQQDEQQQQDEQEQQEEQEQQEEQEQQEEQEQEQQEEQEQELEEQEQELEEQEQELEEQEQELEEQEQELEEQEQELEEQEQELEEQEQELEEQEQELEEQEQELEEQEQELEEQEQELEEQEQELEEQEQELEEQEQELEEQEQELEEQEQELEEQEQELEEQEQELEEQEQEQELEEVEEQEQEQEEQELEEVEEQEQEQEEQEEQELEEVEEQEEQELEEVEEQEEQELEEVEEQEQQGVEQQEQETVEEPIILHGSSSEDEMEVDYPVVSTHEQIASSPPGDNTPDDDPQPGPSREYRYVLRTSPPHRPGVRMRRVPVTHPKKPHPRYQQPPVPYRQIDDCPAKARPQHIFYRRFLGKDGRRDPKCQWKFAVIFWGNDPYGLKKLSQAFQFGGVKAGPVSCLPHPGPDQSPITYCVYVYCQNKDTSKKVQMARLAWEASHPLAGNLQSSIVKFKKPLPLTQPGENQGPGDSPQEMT

[1] = target: UDP-galactopyranose mutase (Mycobacterium tuberculosis, UniProt P9WIQ1); experiment: Inhibitors of Mycobacterium tuberculosis UDP-galactopyranose mutase (UGM) enzyme Measured in Biochemical System Using Plate Reader - 2105-02_Inhibitor_Dose_CherryPick_Activity. [Related pubchem assays (depositor defined):AID504439]
Tumor necrosis factor = Tumor necrosis factor (Homo sapiens, UniProt P01375); experiment: TNFa-triggered NF-kB activation inhibitors, SAR follow-up, cell-based, revised (AID 2337); format: functional
Chain of Tumor necrosis factor (P01375 whole entry, the tested form may be a part): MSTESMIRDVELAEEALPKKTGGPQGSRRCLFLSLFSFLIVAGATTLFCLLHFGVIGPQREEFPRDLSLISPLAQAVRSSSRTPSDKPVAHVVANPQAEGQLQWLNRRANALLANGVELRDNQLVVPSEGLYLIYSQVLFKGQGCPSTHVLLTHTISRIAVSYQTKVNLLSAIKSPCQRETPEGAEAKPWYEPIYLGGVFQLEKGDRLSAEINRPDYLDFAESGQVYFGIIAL

[2] = target: Nucleotide-binding oligomerization domain-containing protein 1 (Homo sapiens, UniProt Q9Y239); experiment: NOD1 signaling inhibitors, SAR follow-up, revised (AID 2333); format: functional
[3] = target: Nucleotide-binding oligomerization domain-containing protein 2 (Homo sapiens, UniProt Q9HC29); experiment: PubChem AID 2334; format: functional
Chain of Nucleotide-binding oligomerization domain-containing protein 2 (Q9HC29 whole entry, the tested form may be a part): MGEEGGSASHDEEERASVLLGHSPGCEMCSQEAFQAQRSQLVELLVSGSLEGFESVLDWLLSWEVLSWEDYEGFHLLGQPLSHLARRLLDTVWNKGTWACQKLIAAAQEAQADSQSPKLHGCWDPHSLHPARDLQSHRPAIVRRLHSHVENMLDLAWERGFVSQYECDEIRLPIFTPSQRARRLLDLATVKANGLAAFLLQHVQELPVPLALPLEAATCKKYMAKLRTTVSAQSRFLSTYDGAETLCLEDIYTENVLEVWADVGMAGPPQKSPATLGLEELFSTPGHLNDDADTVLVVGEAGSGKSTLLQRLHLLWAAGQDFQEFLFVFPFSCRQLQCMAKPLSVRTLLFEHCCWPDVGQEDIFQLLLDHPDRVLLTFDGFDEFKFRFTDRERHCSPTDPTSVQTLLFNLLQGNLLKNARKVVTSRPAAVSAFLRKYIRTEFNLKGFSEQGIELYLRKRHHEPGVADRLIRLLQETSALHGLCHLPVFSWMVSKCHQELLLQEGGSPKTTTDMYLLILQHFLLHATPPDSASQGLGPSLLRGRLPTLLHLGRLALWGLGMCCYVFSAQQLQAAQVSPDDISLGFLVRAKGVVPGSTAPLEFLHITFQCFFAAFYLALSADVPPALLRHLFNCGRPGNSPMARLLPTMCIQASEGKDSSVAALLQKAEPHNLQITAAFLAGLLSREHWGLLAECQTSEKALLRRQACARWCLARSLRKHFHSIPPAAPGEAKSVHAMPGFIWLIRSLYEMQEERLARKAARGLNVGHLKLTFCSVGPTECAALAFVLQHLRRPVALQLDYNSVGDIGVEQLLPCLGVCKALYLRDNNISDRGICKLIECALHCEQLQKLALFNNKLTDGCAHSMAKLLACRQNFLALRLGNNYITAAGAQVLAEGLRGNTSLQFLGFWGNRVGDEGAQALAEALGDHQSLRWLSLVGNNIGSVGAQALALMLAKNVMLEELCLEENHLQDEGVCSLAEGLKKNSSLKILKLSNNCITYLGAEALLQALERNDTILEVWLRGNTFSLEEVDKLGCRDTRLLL

HEK293 = experiment: cells; conditions: Homo sapiens
[4] = target: Sphingosine 1-phosphate receptor 1 (Homo sapiens, UniProt P21453); experiment: Fluorescence-based counterscreen assay for S1P4 agonists: Cell-based dose response high throughput screening assay to identify agonists of the Sphingosine 1-Phosphate Receptor 1 (S1P1). [Related pubchem assays (depositor defined):AID1509, AID1523, AID1801, AID463107, AID463118, AID463119, AID463122, AID463123, AID463129, AID463225, AID504400, AID504460]; format: functional
[5] = target: T1, Sphingosine 1-phosphate receptor 4 (Homo sapiens, UniProt O95977); experiment: Fluorescence dose response cell-based high throughput screening assay for agonists of the Sphingosine 1-Phosphate Receptor 4 (S1P4). [Related pubchem assays: 1509 (Primary screen.), 1523 (Confirmation screen in triplicates.)]; format: functional
T1 sequence (O95977 whole entry): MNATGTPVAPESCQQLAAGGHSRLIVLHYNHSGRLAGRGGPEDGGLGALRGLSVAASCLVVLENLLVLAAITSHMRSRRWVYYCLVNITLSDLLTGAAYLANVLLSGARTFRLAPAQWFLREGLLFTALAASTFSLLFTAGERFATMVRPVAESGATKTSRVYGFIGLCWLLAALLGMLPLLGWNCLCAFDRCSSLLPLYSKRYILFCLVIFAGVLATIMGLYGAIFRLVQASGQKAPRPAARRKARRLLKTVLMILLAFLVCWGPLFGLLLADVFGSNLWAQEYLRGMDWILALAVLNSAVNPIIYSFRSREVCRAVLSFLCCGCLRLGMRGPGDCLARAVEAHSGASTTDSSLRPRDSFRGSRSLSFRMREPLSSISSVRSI

[6] = target: Voltage-dependent T-type calcium channel subunit alpha-1H (Homo sapiens, UniProt O95180); format: functional;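 note: channel activity triggered by adding a high calcium stimulation buffer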
[7] = target: Eukaryotic translation initiation factor 4E (Mus musculus, UniProt P63073); experiment: eIF4E–eIF4G protein interaction inhibitors, dose response, biochemical, TR-FRET (AID 855); format: functional;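 note: potency for disrupting eIF4E binding to eIF4GI seen as loss of FRET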
Chain of Eukaryotic translation initiation factor 4E (P63073 whole entry): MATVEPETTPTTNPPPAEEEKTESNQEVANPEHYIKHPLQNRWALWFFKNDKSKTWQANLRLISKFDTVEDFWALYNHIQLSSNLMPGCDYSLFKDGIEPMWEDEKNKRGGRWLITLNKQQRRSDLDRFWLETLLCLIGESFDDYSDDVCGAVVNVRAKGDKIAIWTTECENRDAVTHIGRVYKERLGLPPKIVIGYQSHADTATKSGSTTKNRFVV

[8] = target: T2, Delta-type opioid receptor (Homo sapiens, UniProt P41143); experiment: HTS Image-Based Screen for Antagonists of the DOR Receptor. [Related pubchem assays (depositor defined):AID1777, AID1785, AID1786, AID2133]; format: functional
T2 sequence (P41143 whole entry): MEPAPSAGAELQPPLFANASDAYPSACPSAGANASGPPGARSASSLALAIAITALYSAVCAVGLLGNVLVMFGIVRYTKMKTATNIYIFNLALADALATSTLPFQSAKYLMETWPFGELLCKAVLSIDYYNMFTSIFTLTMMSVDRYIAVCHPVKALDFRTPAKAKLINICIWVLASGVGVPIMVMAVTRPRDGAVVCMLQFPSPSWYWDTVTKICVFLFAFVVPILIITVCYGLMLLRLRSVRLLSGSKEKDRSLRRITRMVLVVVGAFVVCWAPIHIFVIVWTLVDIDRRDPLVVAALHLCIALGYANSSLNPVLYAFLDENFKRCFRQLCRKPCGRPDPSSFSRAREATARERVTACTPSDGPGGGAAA

Mu-type opioid receptor = Mu-type opioid receptor (Homo sapiens, UniProt P35372); experiment: HTS Image-Based Screen for Agonists of the MOR Receptor. [Related pubchem assays (depositor defined):AID1777, AID1785, AID1786, AID2133]; format: functional;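 note: imaging of beta-arrestin GFP recruitment into spots after receptor activation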
[9] = target: T2, Delta-type opioid receptor; experiment: HTS Image-Based Screen for Agonists of the DOR Receptor. [Related pubchem assays (depositor defined):AID1777, AID1786, AID2133]; format: functional
[10] = target: T3, Kappa-type opioid receptor (Homo sapiens, UniProt P41145); format: functional
T3 sequence (P41145 whole entry): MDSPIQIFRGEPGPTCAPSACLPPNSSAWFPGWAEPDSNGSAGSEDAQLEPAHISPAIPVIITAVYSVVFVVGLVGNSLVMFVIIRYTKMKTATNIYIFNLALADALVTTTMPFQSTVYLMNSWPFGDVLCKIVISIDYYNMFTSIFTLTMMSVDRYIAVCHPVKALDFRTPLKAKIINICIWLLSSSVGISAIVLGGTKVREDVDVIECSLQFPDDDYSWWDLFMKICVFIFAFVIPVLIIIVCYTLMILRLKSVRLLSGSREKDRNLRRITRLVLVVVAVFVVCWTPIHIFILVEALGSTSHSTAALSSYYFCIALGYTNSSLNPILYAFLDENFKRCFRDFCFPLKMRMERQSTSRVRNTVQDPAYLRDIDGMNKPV

Beta-galactosidase = Beta-galactosidase (Escherichia coli, UniProt Q8VNN2); format: functional
Chain of Beta-galactosidase (Q8VNN2 whole entry): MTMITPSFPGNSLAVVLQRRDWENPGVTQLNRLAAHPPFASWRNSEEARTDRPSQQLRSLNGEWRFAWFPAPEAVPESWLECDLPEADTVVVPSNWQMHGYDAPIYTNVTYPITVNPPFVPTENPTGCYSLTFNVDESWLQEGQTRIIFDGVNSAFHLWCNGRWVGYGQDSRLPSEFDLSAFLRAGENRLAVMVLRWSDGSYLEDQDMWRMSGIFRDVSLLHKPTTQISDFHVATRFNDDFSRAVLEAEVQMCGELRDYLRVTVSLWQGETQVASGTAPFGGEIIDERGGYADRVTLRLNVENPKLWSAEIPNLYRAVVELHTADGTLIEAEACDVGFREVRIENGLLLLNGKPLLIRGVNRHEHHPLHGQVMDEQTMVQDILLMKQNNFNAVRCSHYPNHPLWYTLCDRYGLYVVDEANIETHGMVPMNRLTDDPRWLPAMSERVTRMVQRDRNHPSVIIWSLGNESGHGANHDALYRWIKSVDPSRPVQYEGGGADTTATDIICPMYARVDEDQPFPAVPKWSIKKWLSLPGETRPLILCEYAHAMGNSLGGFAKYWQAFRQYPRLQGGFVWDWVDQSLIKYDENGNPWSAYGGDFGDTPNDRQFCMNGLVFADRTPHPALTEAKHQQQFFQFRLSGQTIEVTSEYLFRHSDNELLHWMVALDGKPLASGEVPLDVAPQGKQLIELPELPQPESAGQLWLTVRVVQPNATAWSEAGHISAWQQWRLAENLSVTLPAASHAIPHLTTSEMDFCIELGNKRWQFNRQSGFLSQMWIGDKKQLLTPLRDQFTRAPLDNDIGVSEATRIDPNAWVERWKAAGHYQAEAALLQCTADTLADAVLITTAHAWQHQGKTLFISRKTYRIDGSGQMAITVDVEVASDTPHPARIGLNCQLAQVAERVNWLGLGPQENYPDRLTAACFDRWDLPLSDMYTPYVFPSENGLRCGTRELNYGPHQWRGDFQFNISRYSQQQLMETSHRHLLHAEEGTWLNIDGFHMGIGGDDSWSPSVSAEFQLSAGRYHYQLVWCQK

[11] = target: T3, Kappa-type opioid receptor; format: functional; remark: listed apart in the source
[12] = NIH-3T3 fibroblast cytotoxicity, dose response, cytotoxicity control, cell-based, fluorescence, Alamar Blue, secondary assay (AID 2327); format: functional;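 note: NIH-3T3 mouse fibroblasts cultured with fluconazole at 8 µg/mL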
[13] = C. albicans growth with fluconazole, confirmation, fluorescence, retest (AID 2467); format: functional, cell-based
[14] = target: T4, Serine/threonine-protein phosphatase (Candida dubliniensis (strain CD36 / CBS 7987 / NCPF 3949 / NRRLY-17841) (Yeast), UniProt B9W6M3); experiment: calcineurin pathway inhibitors in yeast reporter, dose response, S. cerevisiae, CDRE-lacZ, luminescence, secondary (AID 2388); format: functional, cell-based;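 note: yeast reporter cells carrying a calcineurin-responsive lacZ construct stimulated with calcium chloride; luminescent beta-galactosidase reporter signal in whole cells rather than isolated phosphatase activity; potency for inhibition where a drop in reporter signal means calcineurin blockade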
T4 sequence (B9W6M3 whole entry): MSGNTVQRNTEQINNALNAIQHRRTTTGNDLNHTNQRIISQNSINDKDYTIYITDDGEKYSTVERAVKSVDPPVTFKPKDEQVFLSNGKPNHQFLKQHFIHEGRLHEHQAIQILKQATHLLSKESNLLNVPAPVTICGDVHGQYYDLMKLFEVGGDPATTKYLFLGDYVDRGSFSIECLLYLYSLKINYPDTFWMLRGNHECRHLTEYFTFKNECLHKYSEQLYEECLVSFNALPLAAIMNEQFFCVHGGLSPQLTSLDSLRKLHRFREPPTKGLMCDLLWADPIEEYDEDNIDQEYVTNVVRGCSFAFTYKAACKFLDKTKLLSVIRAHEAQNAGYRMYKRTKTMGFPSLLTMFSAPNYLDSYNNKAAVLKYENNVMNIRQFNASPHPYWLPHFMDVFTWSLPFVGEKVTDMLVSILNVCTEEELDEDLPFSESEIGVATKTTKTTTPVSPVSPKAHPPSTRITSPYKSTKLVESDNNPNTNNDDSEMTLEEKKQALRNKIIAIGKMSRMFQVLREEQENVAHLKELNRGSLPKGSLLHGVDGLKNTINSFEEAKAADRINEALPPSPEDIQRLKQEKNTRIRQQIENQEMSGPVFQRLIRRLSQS

[15] = THP-1 cell cytotoxicity, dose response, cytotoxicity control for non-replicating M. tuberculosis project (AID 489025); format: functional
[16] = HepG2 cell cytotoxicity, dose response, cytotoxicity control for non-replicating M. tuberculosis project (AID 489018); format: functional; conditions: Mycobacterium tuberculosis
[17] = Vero E6 cell cytotoxicity, dose response, cytotoxicity control for non-replicating M. tuberculosis project, secondary assay (AID 492998); format: functional, VeroE6; conditions: Vero C1008
[18] = target: T5, Short transient receptor potential channel 4 (Mus musculus, UniProt Q9QUQ5); experiment: mouse TRPC4 channel activators, dose response, cell-based, HEK293 TRPC4/mu-opioid, Fluo-4 calcium (AID 434937); format: functional
T5 sequence (Q9QUQ5 whole entry): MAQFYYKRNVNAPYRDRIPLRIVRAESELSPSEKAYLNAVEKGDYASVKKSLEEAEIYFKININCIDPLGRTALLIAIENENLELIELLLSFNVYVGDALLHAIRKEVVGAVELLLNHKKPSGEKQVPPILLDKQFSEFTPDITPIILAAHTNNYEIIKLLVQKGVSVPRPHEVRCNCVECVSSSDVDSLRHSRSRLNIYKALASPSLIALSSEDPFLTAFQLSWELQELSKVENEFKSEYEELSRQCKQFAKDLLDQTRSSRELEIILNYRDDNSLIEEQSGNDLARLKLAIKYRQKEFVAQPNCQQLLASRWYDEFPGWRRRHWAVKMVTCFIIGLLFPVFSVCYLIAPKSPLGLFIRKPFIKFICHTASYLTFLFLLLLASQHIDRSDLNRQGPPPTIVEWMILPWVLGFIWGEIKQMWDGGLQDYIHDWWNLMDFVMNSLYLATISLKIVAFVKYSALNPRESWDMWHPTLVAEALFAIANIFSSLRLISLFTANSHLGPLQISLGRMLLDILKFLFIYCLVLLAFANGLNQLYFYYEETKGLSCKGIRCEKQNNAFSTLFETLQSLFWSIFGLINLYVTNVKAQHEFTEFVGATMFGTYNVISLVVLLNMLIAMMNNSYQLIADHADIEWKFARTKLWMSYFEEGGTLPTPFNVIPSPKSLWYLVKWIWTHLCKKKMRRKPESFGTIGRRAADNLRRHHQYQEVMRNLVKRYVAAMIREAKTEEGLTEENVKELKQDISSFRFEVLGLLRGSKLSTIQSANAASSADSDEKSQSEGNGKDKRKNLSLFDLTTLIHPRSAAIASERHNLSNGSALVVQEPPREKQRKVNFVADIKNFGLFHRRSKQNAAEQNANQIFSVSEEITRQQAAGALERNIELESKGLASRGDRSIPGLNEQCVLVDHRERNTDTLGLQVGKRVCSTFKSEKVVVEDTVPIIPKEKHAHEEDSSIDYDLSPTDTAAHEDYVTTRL

cells = format: functional
[19] = target: T4, Serine/threonine-protein phosphatase; experiment: Fluorescence Cell-Based Secondary Assay to Identify Inhibitors of Calcineurin. [Related pubchem assays (depositor defined):AID1979, AID2007]; format: functional
[20] = target: ATP-dependent molecular chaperone HSP82 (Candida albicans (strain WO-1) (Yeast), UniProt C4YTQ8); experiment: loss of DOC-induced GRE-beta-galactosidase reporter signal, dose response, Hsp90 inhibitor project, S. cerevisiae, luminescence (AID 2400); format: functional, cell-based;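 note: beta-galactosidase luminescence from glucocorticoid response element reporter as proxy for Hsp90 function; inhibitor potency where signal loss means Hsp90 inhibition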
Cytochrome P450 2C19 = Cytochrome P450 2C19 (Homo sapiens, UniProt P33261); experiment: Cytochrome panel assay with activity outcomes. Panel member name: p450-cyp2c19 Compounds with AC50 equal or less than 10 uM are considered active; format: functional
Cytochrome P450 2D6 = Cytochrome P450 2D6 (Homo sapiens, UniProt P10635);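 note: CYP2D6 member of a cytochrome P450 panel assay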
Cytochrome P450 1A2 = target: T6, Cytochrome P450 1A2 (Homo sapiens, UniProt P05177);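 note: PubChem cytochrome P450 panel assay, CYP1A2 panel member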
T6 sequence (P05177 whole entry): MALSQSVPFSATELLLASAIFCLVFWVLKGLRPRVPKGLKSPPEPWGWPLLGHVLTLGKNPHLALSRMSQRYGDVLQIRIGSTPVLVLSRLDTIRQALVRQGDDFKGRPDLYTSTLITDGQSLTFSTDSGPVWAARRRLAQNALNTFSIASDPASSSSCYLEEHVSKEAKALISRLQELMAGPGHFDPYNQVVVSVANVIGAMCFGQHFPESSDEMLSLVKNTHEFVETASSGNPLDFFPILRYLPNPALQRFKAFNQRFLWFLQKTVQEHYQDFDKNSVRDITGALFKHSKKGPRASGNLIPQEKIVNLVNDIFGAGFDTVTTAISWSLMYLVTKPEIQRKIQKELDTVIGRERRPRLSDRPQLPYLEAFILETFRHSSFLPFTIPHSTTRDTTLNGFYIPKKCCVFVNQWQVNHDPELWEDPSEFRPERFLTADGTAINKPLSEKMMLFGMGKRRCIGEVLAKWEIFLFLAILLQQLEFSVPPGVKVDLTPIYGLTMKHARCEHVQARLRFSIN

Cytochrome P450 3A4 = Cytochrome P450 3A4 (Homo sapiens, UniProt P08684);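 note: CYP3A4 tested as one member of a cytochrome P450 panel screen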
Cytochrome P450 2C9 = Cytochrome P450 2C9 (Homo sapiens, UniProt P11712)
Chain of Cytochrome P450 2C9 (P11712 whole entry): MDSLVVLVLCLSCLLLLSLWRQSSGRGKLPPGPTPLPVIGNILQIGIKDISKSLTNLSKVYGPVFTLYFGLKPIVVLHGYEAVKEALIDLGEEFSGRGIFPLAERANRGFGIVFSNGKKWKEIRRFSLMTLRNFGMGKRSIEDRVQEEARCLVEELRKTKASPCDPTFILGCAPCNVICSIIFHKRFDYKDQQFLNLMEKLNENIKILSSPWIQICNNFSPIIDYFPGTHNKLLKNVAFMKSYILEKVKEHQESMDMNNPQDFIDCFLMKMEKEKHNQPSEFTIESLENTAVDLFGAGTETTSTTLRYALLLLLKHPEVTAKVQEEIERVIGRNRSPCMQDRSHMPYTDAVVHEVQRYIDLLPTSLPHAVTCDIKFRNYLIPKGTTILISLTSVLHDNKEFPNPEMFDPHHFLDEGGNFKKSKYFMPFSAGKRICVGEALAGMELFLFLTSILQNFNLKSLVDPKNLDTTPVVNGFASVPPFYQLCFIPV

## Cn1cc(/C=C2\C(=O)NC(=O)N(c3ccccc3)C2=O)c2ccccc21
Salmon testes DNA
  AC50: 92.2 µM (active)
ORF 73
  AC50: 41.3 µM (active)
[1]
  AC50: 71.9 µM (active)

## O=C(Nc1nc2ccccc2n1Cc1ccccc1Cl)c1cccs1
Tumor necrosis factor
  IC50: > 20 µM (inactive)
[2]
  IC50: > 20 µM (inactive)
[3]
  IC50: > 20 µM (inactive)
HEK293
  IC50: > 20 µM (inactive)

## CCOc1ccccc1OCCCCCc1c(C)n[nH]c1C
[4]
  EC50: > 49.8 µM (inactive)
[5]
  EC50: > 49.8 µM (not active)
[6]
  EC50: 8.55 µM (active)
[7]
  IC50: > 64 µM (inactive)

## CCc1nc2sc3c(Cl)ncnc3c2c2c1CCCC2
[8]
  IC50: > 32 µM (inactive)
Mu-type opioid receptor
  EC50: > 32 µM (inactive)
[9]
  EC50: > 32 µM (inactive)
[10]
  IC50: 5.42 µM (active)
Beta-galactosidase
  EC50: > 31.5 µM (inactive)
[11]
  IC50: > 32 µM

## O=c1c2cc(Br)ccc2nc(-c2cccc(C(F)(F)F)c2)n1O
[12]
  EC50: 15.5 µM (inconclusive)
[13]
  EC50: 451 nM (active)
[14]
  EC50: 28.1 µM (active)
[15]
  CC50: 13.9 µM (active)
[16]
  CC50: 15.8 µM (active)
[17]
  CC50: 11.6 µM (active)
[18]
  EC50: 5.96 µM (active)
cells
  IC50: 8.38 µM (active)
[19]
  EC50: 17.3 µM (active)
[20]
  EC50: 4.04 µM (active)

## O=C(O[C@H]1C[N@+]2(Br)CC[C@@H]1CC2)C(O)(c1ccccc1)c1ccccc1
Cytochrome P450 2C19
  AC50: inactive
Cytochrome P450 2D6
  AC50: inactive
Cytochrome P450 1A2
  AC50: inactive
Cytochrome P450 3A4
  AC50: inactive
Cytochrome P450 2C9
  AC50: inactive
